These results are taken from patent publication US6743892B1, “Molecules that home to a selected organ in vivo” (La Jolla Cancer Research Foundation, priority 1995, dated 2004).

Assay [1] concerns brain. The assay is described as follows: 125I-peptide/RBC complex homing to brain and kidney, with or without unlabeled peptide. Type of assay: in vivo, mouse. As to conditions: 10 mM unlabeled peptide coadministered. The method, then: The synthetic cyclic CLSSRLDAC (SEQ ID NO: 3) peptide (1 mg) was labeled with iodine-125 using the Bolton and Hunter reagent (Amersham; Arlington Heights Ill.). Labeled peptide was purified by reverse phase HPLC on Sep-Pak™ cartridges (Waters, Millipore Corp.; Milford Pa.) and the ^125I-peptide (200 μg) was coupled to 1 ml glutaraldehyde-stabilized sheep RBC (Sigma Chemical Co.; St. Louis Mo.) according to the manufacturer's instructions.
After 2 min, each mouse was perfused through the heart with 50 ml DMEM and the brain and kidney were removed and assayed for radioactivity.
Approximately twice as much of the CLSSRLDAC/RBC complex (SEQ ID NO: 3) homed to brain than to kidney. […] Coadministration of unlabeled CVRLNSLAC (SEQ ID NO: 43) had no effect on selective homing of the complex to brain and no effect on the non-specific localization of the complex in the kidney.

The subject of assay [2] is brain. In words: Brain homing activity (test not described). As to conditions: in vivo.
For assay [3], the system named is brain. The assay is described as follows: Peptide competition of phage homing to brain. Type of assay: in vivo, mice. As to conditions: 100 μg synthetic cyclic peptide injected with 1×10^8 TU phage. The method, then:
In order to confirm the specificity of a peptide for directing homing to a selected organ, peptide competition experiments were performed. The cyclic peptide, CLSSRLDAC (SEQ ID NO: 3), which is one of the brain homing peptides (see Table 1) was synthesized (Immunodynamics; La Jolla Calif.) and purified by HPLC. The effect on the homing of phage expressing CLSSRLDAC (SEQ ID NO: 3), CENWWGDVC (SEQ ID NO: 2) or […] (SEQ ID NO: 16) to the brain was examined in order to determine whether co-administration of the synthetic peptide affected homing of the phage.
Phage expressing CLSSRLDAC (SEQ ID NO: 3), CENWWGDVC (SEQ ID NO: 2) or […] (SEQ ID NO: 16) were titrated to the same concentration and 1×10^8 TU was injected into mice alone, or with 100 μg purified synthetic cyclic CLSSRLDAC (SEQ ID NO: 3) peptide. The synthetic CLSSRLDAC (SEQ ID NO: 3) peptide inhibited the homing of phage expressing CLSSRLDAC (SEQ ID NO: 3) by about 60%.

Bridge positions count the residues as written; N and C are the ends. Ends that are not written are not given here.

With CVRLNSLAC [reference compound], in assay [1], the “effect of coadministration on brain homing of the CLSSRLDAC/RBC complex” value is listed as “no effect” and the “effect of coadministration on localization of the CLSSRLDAC/RBC complex in the kidney” value is “no effect”. Besides, the brain homing activity result in assay [2] is on record as “no brain homing activity”.

As for CLSSRLDAC (disulfide 1-9 (inferred)), in assay [1], the “effect of coadministration on brain homing of the CLSSRLDAC/RBC complex” value is recorded as “essentially completely inhibited” and the “effect of coadministration on localization of the CLSSRLDAC/RBC complex in the kidney” value is on record as “no effect”. Further, in assay [3], the “effect on homing to brain of CENWWGDVC phage” value was “did not affect” and the “inhibition of homing to brain of phage expressing CLSSRLDAC” value is recorded as “about 60%”.
